Reference: patent US9376418B2, “Substituted pyridine spleen tyrosine kinase (SYK) inhibitors” (Merck Sharp & Dohme Corp., priority 2012, dated 2016)

Biological target: T1, recombinant human GST-SYK (Homo sapiens, UniProt P43405)
T1 construct: purchased Carna Biosciences 08-176
Test: Homogeneous Time-Resolved Fluorescence (HTRF) assay for the recombinant human Syk enzyme
Type: biochemical
Conditions: HTRF assay, recombinant human GST-SYK; IC50 given as class symbols; read-out: rhSYK Activity
Method: Homogeneous Time-Resolved Fluorescence (HTRF) Assay for the Recombinant Human Syk Enzyme
A recombinant GST-hSYK fusion protein was used to measure potency of compounds to inhibit human Syk activity. The recombinant human GST-SYK (Carna Biosciences #08-176) ([…]) was incubated with various concentrations of the inhibitor diluted in DMSO (0.1% final concentration) for 10 minutes at room temperature in 15 mM Tris-HCl (pH 7.5), 0.01% tween 20, 2 mM DTT in 384 well plate format. To initiate the reaction the biotinylated substrate peptide (250 nM final concentration) that contains the phosphorylation site for Syk was added with magnesium (5 mM final concentration) and ATP (25 μM final concentration). Final volume of the reaction was 10 μL. Phosphorylation of the peptide was allowed to proceed for 45′ at room temperature. To quench the reaction and detect the phosphorylated product, 2 nM of a Europium-anti-phosphotyrosine antibody (Perkin Elmer #AD0161) and 70 nM SA-APC (Perkin-Elmer #CR130-100) were added together in 15 mM Tris pH 7.5, 40 mM EDTA, 0.01% tween 20. Final volume of the quenching solution was 10 μL. The resulting HTRF signal was measured after 30 minutes on an EnVision (Perkin-Elmer) reader using a time-resolved fluorescence protocol.

Row | Compound | IC50
1 | CNC(=O)C1CCCN1c1cc(-c2cc(C)cc(Nc3nccc(C(F)(F)F)n3)c2)ccn1 (racemic) [Example 15.81, N-methyl-1-[4-(3-methyl-5-{[4-(trifluoromethyl)pyrimidin-2-yl]amino}phenyl)pyridin-2-yl]prolinamide] | 0.1 to 1 µM
2 | CCCCOC(=O)[C@H]1CC[C@H](C(C)(O)c2ccc(-c3cc(C)cc(Nc4nccc(C5CC5)n4)c3)cn2)CC1 (relative stereo) [Example 9.48, butyl trans-4-[1-(5-{3-[(4-cyclopropylpyrimidin-2-yl)amino]-5-methylphenyl}pyridin-2-yl)-1-hydroxyethyl]cyclohexanecarboxylate] | 0.1 to 1 µM
3 | Cc1cc(Nc2nccc(C(F)(F)F)n2)cc(-c2ccc(C34CCC(C(=O)O3)C(C)(C)C4)nc2)c1 (single isomer, unassigned) [Example 9.9, (1R,4S or 1S,4R)-5,5-dimethyl-1-[5-(3-methyl-5-{[4-(trifluoromethyl)pyrimidin-2-yl]amino}phenyl)pyridin-2-yl]-2-oxabicyclo[2.2.2]octan-3-one] | 0.1 to 1 µM
4 | Cc1cc(Nc2nccc(C(F)(F)F)n2)cc(-c2ccc(C34CCC(C(=O)O3)C(C)(C)C4)nc2)c1 (single isomer, unassigned) [Example 9.10, (1S,4R or 1R,4S) 5,5-dimethyl-1-[5-(3-methyl-5-{[4-(trifluoromethyl)pyrimidin-2-yl]amino}phenyl)pyridin-2-yl]-2-oxabicyclo[2.2.2]octan-3-one] | 0.1 to 1 µM
5 | COc1ccnc(Nc2cc(C)cc(-c3ccc(C(C)(O)[C@H]4CC[C@H](C(=O)O)CC4)nc3)c2)n1 (single isomer, unassigned) [Example 9.17, trans-4-[(1R or 1S)-1-hydroxy-1-(5-{3-[(4-methoxypyrimidin-2-yl)amino]-5-methylphenyl}pyridin-2-yl)ethyl]cyclohexanecarboxylic acid] | < 0.1 µM
6 | Cc1cc(Nc2nccc(C3CC3)n2)cc(-c2ccc(C(C)(O)[C@H]3CC[C@H](C(=O)O)CC3)nc2)c1 (single isomer, unassigned) [Example 9.18, trans-4-[(1R or 1S)-1-(5-{3-[(4-cyclopropylpyrimidin-2-yl)amino]-5-methylphenyl}pyridin-2-yl)-1-hydroxyethyl]cyclohexanecarboxylic acid] | < 0.1 µM
7 | Cc1cc(Nc2nccc(C3CC3)n2)cc(-c2ccc(C(C)(O)[C@H]3CC[C@H](C(=O)O)CC3)nc2)c1 (single isomer, unassigned) [Example 9.19, trans-4-[(1R or 1S)-1-(5-{3-[(4-cyclopropylpyrimidin-2-yl)amino]-5-methylphenyl}pyridin-2-yl)-1-hydroxyethyl]cyclohexanecarboxylic acid] | < 0.1 µM
8 | Cc1cc(Nc2nccc(C)n2)cc(-c2ccc(C(C)(O)[C@H]3CC[C@H](C(=O)O)CC3)nc2)c1 (single isomer, unassigned) [Example 9.26, trans-4-[(1R or 1S)-1-hydroxy-1-(5-{3-methyl-5-[(4-methylpyrimidin-2-yl)amino]phenyl}pyridin-2-yl)ethyl]cyclohexanecarboxylic acid] | < 0.1 µM
9 | Cc1cc(Nc2nccc(C)n2)cc(-c2ccc(C(C)(O)[C@H]3CC[C@H](C(=O)O)CC3)nc2)c1 (single isomer, unassigned) [Example 9.27, cis-4-[(1S or 1R)-1-hydroxy-1-(5-{3-methyl-5-[(4-methylpyrimidin-2-yl)amino]phenyl}pyridin-2-yl)ethyl]cyclohexanecarboxylic acid] | < 0.1 µM
10 | COc1ccnc(Nc2cc(C)cc(-c3ccc(C(C)(O)[C@H]4CC[C@H](C(=O)O)CC4)nc3)c2)n1 (single isomer, unassigned) [Example 9.28, trans-4-[(1R or 1S)-1-hydroxy-1-(5-{3-[(4-methoxypyrimidin-2-yl)amino]-5-methylphenyl}pyridin-2-yl)ethyl]cyclohexanecarboxylic acid] | < 0.1 µM
11 | Cc1cc(Nc2nccc(C(F)F)n2)cc(-c2ccc(C(C)(O)C3CCC(C(=O)O)CC3)nc2)c1 (single isomer, unassigned) [Example 9.29, trans-4-{(1R or 1S)-1-[5-(3-{[4-(difluoromethyl)pyrimidin-2-yl]amino}-5-methylphenyl)pyridin-2-yl]-1-hydroxyethyl}cyclohexanecarboxylic acid] | < 0.1 µM
12 | Cc1cc(Nc2nccc(C(F)(F)F)n2)cc(-c2ccc(C(C)(O)[C@H]3CC[C@H](C(=O)O)CC3)nc2)c1 (single isomer, unassigned) [Example 9.30, trans-4-{(1R or 1S)-1-hydroxy-1-[5-(3-methyl-5-{[4-(trifluoromethyl)pyrimidin-2-yl]amino}phenyl)pyridin-2-yl]ethyl}cyclohexanecarboxylic acid] | < 0.1 µM
13 | Cc1cc(Nc2nccc(C(F)F)n2)cc(-c2ccc(C(C)(O)C3CCC(C(=O)O)CC3)nc2)c1 (single isomer, unassigned) [Example 9.31, trans-4-{(1R or 1S)-1-[5-(3-{[4-(difluoromethyl)pyrimidin-2-yl]amino}-5-methylphenyl)pyridin-2-yl]-1-hydroxyethyl}cyclohexanecarboxylic acid] | < 0.1 µM
14 | CCCCOC(=O)C1CCC(C(C)(O)c2ccc(-c3cc(C)cc(Nc4nccc(OC)n4)c3)cn2)CC1 (single isomer, unassigned) [Example 9.50, butyl trans-4-[(1R or 1S)-1-hydroxy-1-(5-{3-[(4-methoxypyrimidin-2-yl)amino]-5-methylphenyl}pyridin-2-yl)ethyl]cyclohexanecarboxylate] | 0.1 to 1 µM
15 | CCCCOC(=O)C1CCC(C(C)(O)c2ccc(-c3cc(C)cc(Nc4nccc(C(F)F)n4)c3)cn2)CC1 (single isomer, unassigned) [Example 9.51, butyl trans-4-{(1R or 1S)-1-[5-(3-{[4-(difluoromethyl)pyrimidin-2-yl]amino}-5-methylphenyl)pyridin-2-yl]-1-hydroxyethyl}cyclohexanecarboxylate] | 0.1 to 1 µM

The next lines start with the values.

Row | IC50 | Compound
16 | < 0.1 µM | Cc1cc(Nc2nccc(C(F)(F)F)n2)cc(-c2ccc(N3CCCC3C(N)=O)nc2)c1 (racemic) [Example 7.38, 1-[5-(3-methyl-5-{[4-(trifluoromethyl)pyrimidin-2-yl]amino}phenyl)pyridin-2-yl]prolinamide]
17 | < 0.1 µM | Cc1cc(Nc2nccc(C(F)(F)F)n2)cc(-c2ccc(N3CCCC3C(=O)O)nc2)c1 (racemic) [Example 7.119, 1-[5-(3-methyl-5-{[4-(trifluoromethyl)pyrimidin-2-yl]amino}phenyl)pyridin-2-yl]proline]
18 | < 0.1 µM | CCCCOC(=O)[C@H]1CC[C@H](C(C)(O)c2ccc(-c3cc(C)cc(Nc4nccc(OC)n4)c3)cn2)CC1 (relative stereo) [Example 9.49, butyl trans-4-[1-hydroxy-1-(5-{3-[(4-methoxypyrimidin-2-yl)amino]-5-methylphenyl}pyridin-2-yl)ethyl]cyclohexanecarboxylate]
19 | < 0.1 µM | Cc1cc(Nc2nccc(C(F)(F)F)n2)cc(-c2ccc(N3CCCC3C(=O)O)nc2)c1 (single isomer, unassigned) [Example 7.122, 1-[5-(3-methyl-5-{[4-(trifluoromethyl)pyrimidin-2-yl]amino}phenyl)pyridin-2-yl]proline]
20 | < 0.1 µM | CC1(C)CC(O)(c2ccc(-c3cc(F)cc(Nc4nccc(C(F)(F)F)n4)c3)cn2)CCC1C(=O)O (single isomer, unassigned) [Example 9.4, (1S,4R or 1R,4S)-4-[5-(3-fluoro-5-{[4-(trifluoromethyl)pyrimidin-2-yl]amino}phenyl)pyridin-2-yl]-4-hydroxy-2,2-dimethylcyclohexanecarboxylic acid]
21 | < 0.1 µM | Cc1cc(Nc2nccc(C(F)(F)F)n2)cc(-c2ccc(C3(O)CCC(C(=O)O)C(C)(C)C3)nc2)c1 (single isomer, unassigned) [Example 9.8, (1S,4R or 1R,4S)-4-hydroxy-2,2-dimethyl-4-[5-(3-methyl-5-{[4-(trifluoromethyl)pyrimidin-2-yl]amino}phenyl)pyridin-2-yl]cyclohexanecarboxylic acid]
22 | < 0.1 µM | CC1(C)CC(O)(c2ccc(-c3cc(Nc4nccc(C(F)(F)F)n4)cc(C(F)F)c3)cn2)CCC1C(=O)O (single isomer, unassigned) [Example 9.13, (1S,4R or 1R,4S)-4-{5-[3-(difluoromethyl)-5-{[4-(trifluoromethyl)pyrimidin-2-yl]amino}phenyl]pyridin-2-yl}-4-hydroxy-2,2-dimethylcyclohexanecarboxylic acid]
23 | < 0.1 µM | CC1(C)CC(O)(c2ccc(-c3cc(F)cc(Nc4nccc(C(F)(F)F)n4)c3)cn2)CCC1C(=O)O (single isomer, unassigned) [Example 9.14, (1R,4S or 1S,4R)-4-[5-(3-fluoro-5-{[4-(trifluoromethyl)pyrimidin-2-yl]amino}phenyl)pyridin-2-yl]-4-hydroxy-2,2-dimethylcyclohexanecarboxylic acid]
24 | < 0.1 µM | Cc1cc(Nc2nccc(C(F)(F)F)n2)cc(-c2ccc(C3(O)CCC(C(=O)O)C(C)(C)C3)nc2)c1 (single isomer, unassigned) [Example 9.16, (1R,4S or 1S,4R)-4-hydroxy-2,2-dimethyl-4-[5-(3-methyl-5-{[4-(trifluoromethyl)pyrimidin-2-yl]amino}phenyl)pyridin-2-yl]cyclohexanecarboxylic acid]
